Patent publication US11179450B2, “Long chain antigen containing interepitope sequence that promotes antigen presentation to T cells” (MIE UNIVERSITY, priority 2013, dated 2021)

Tested on: mouse fibrosarcoma cell line CMS5a
Assay: Mouse tumor growth test
Assay type: in vivo, BALB/c mice
Conditions: FIG. 2; single dose of vaccine with CpG oligo DNA before subcutaneous CMS5a implantation (prophylactic condition); Student's t test
Excerpt: Long chain peptide antigens MEN, all containing three types of mouse CD8+ T cell epitope sequences (MA p265 (Sequence No. 27), NY p81 (Sequence No. 29), and mERK2 9m (Sequence No. 28)), were synthesized. The interepitope sequences between the respective epitopes were respectively six consecutive tyrosines (Y6) (Sequence No. 1), six consecutive glycines (G6) (Sequence No. 2), or six consecutive prolines (P6) (Sequence No. 3). Each long chain peptide antigen was complexed with CHP and administered in a single dose as a vaccine to a mouse. As a control, a short chain peptide vaccine, constituted of just the mERK2 9m peptide, was mixed with Freund's incomplete adjuvant and administered. In the process of administration, CpG oligo DNA was coadministered as an adjuvant. On the day after administration, a mouse fibrosarcoma cell line CMS5a, expressing mERK2 as a tumor antigen and presenting the CD8+ T cell epitope mERK2 9m derived from the same antigen, was implanted subcutaneously and its growth was recorded over time.
A subcloned CMS5a cell line, obtained from a CMS5 cell line isolated from fibrosarcoma induced by administering 3-methylcholanthrene to a BALB/c mouse, expresses mutant ERK2 (mERK2) as a tumor antigen and presents a CD8^+ T cell epitope derived from the mERK2. The CMS5a cell line cultured in a T75 flask (Nunc) was detached using PBS containing 0.5% trypsin and collected in RPMI1640 medium containing 10% FBS. After centrifuging (400×g, 5 minutes, 4° C.), the supernatant was removed, and the cells were rinsed twice with RPMI1640 medium, thereafter suspended in RPMI1640 medium at a concentration of 1×10^6 cells/100 μL, and implanted subcutaneously in BALB/c mice at a dose of 100 μL/individual. The CHP/long chain peptide complexes and the adjuvant were administered 7 days before tumor implantation (prophylactic condition). After tumor implantation, the length and breadth of the tumor were measured and the product thereof was recorded as tumor size. The data in the tumor growth test were compared by Student's t test using Microsoft® Excel® (Microsoft Corporation).

QYIHSANVL [mERK2 9m, reference compound]
growth of the tumor: significant suppression of tumor growth was not observed
